Assay in all cases: inhibition of tumour cell growth, NCI panel, 48 h
Assay [1] concerns HCC-2998 colon.
Assay [2] concerns EKVX NSCLC.
Assay [3] concerns SW-620 colon.
Assay [4] deals with MDA-MB-231 breast.
Assay [5] concerns HOP-92 NSCLC.
The subject of assay [6] is MDA-N.
Assay [7] has as its system MDA-MB-435.
Assay [8] concerns NCI-H23 lung.
The subject of assay [9] is MOLT-4 leukemia.
Assay [10] relates to SR leukemia.

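Compound exposure: 48 hours, 5 concentrations, 96-well plates. GI50 marks 50% less growth. The concentration for full growth arrest is given as TGI.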

As for `O=C(N/N=C(/COc1ccc(Cl)cc1)N=Cc1cccnc1)c1ccncc1`, the TGI in [1] is over 100 µM; in assay [2], over 100 µM; in [3], over 100 µM; in assay [4] it was over 100 µM; in [5], 84.5 µM; in assay [6], 65.8 µM. For the same compound, the TGI in [7], in assay [8] and in [9] was over 100 µM in each case.

For the compound `C#CCn1ncc2c(SC)ncnc21`, the TGI in assay [1], in assay [2], in [3], in assay [4], in assay [10] and in [5] was over 100 µM each time. For the same compound, the TGI in assay [6], in assay [7], in assay [8] and in assay [9] was over 100 µM throughout.

Regarding `OC1(c2ccc(Cl)cc2)c2c(ccc3c2OCO3)C2=NCCN21` (stereo not given), the TGI in assay [2] is over 100 µM; in [3], over 100 µM; in assay [4], 91.8 µM; in [10] it was 53 µM; in assay [5], 73.5 µM; in [6], 87.4 µM. The TGI in [7], in [8] and in assay [9] was over 100 µM throughout.

Regarding `O=C1N(c2ccccc2)C2(c3ccccc3)CC3CCCC13S2` (stereo not given), the TGI in [2], in assay [3], in assay [4], in assay [10], in assay [5] and in assay [7] was over 100 µM each time. The TGI in assay [8] and in [9] was over 100 µM in each case.

Consider `O=C(C=P(c1ccccc1)(c1ccccc1)c1ccccc1)c1cccc(-c2cccc([N+](=O)[O-])c2)c1`, for which the TGI was over 100 µM in assay [1]; over 100 µM in assay [2]; 26.8 µM in assay [3]; 7.04 µM in assay [4]; 5.77 µM in assay [5]; 6.95 µM in assay [6]. The TGI in [8] came out at 26.4 µM; in assay [9] it was 5.37 µM.

For the compound `O=Cc1cc([N+](=O)[O-])no1`, the TGI in [1] is over 100 µM; in [3] it was over 100 µM; in assay [4] it was 64.3 µM; in [10], over 100 µM; in assay [5], over 100 µM; in [6], 52.6 µM. Also, the TGI in assay [7] was 29.9 µM; in assay [8], over 100 µM; in assay [9] it was 81.5 µM.

On to `N/C(=N\S(=O)(=O)c1cccc2nsnc12)Nc1ccc(Cl)cc1`, for which the TGI in assay [2] was 63.7 µM; in [3], over 100 µM; in assay [4] it was 75.9 µM; in assay [10], over 100 µM; in assay [5], 56.5 µM; in [6], over 100 µM. Further, the TGI in assay [8] and in [9] was over 100 µM each time.

Regarding `COC(=O)c1cc2c3c(cc(N(C)C)c2[nH]1)N(C(=O)c1cc2cc(OC)c(OC)c(OC)c2[nH]1)CC3CCl` (stereo not given), the TGI in assay [1] is 0.0144 µM; in [2], 2.79 µM; in [4], 0.0132 µM; in assay [5], 0.756 µM; in assay [6], under 0.0025 µM; in [7] it was under 0.0025 µM. In [9], this compound displayed a TGI of 0.318 µM.

`Cc1ccc(NP(=O)(Oc2ccccc2)N(CCCl)CCCl)cc1` (stereo not given): the TGI in assay [1], in [2], in assay [3], in [10], in assay [5] and in assay [8] was over 100 µM each time. The TGI in [9] is over 100 µM.

As for `CS(=O)(=O)OC1CN2CCC1CC2` (stereo not given), the TGI in assay [2], in assay [3], in assay [4], in [10], in [5] and in [6] was over 100 µM in each case. Further, the TGI in assay [7], in [8] and in assay [9] was over 100 µM throughout.

As for `CN(c1cc2ncc(=O)[nH]c2cc1NC(N)=NCc1ccc(Cl)cc1)C1CCCCC1`, the GI50 was 1730 nM in [1]; 6.65 µM in assay [2]; 4.33 µM in [3]; 2460 nM in assay [4]; 1490 nM in assay [10]; 793 nM in [5]. Also, the GI50 in assay [7] is 6.34 µM; in assay [8], 8.25 µM; in assay [9], 6.59 µM. The TGI was found to be 5.29 µM in [1]; 14.5 µM in assay [2]; 11.2 µM in assay [3]; 9.04 µM in assay [4]; 5.23 µM in assay [10]; 5.95 µM in [5]. Also, the values for the TGI in assay [7], in assay [8] and in assay [9] were 12.8 µM, 15.9 µM and 14.6 µM, respectively.

On to `Nc1cc2c(nnn2C2OC(COCc3ccccc3)C(OCc3ccccc3)C2OCc2ccccc2)c(=O)[nH]1` (stereo not given), for which the TGI in assay [2] is 46.1 µM; in assay [3], over 100 µM; in [4], over 100 µM; in [10] it was 35.6 µM; in [5] it was over 100 µM; in assay [6], 34 µM. Besides, the TGI in assay [7] was 40.4 µM; in assay [8], over 100 µM; in assay [9], 38.9 µM.

On to `CCCCCCCCCCCCCCCc1ccc(OCC(O)CO)cc1` (stereo not given), for which the TGI was 49.9 µM in assay [1]; 78.5 µM in [2]; 49.1 µM in assay [3]; over 100 µM in assay [10]; 47.8 µM in [5]; 35.2 µM in [8]. In assay [9], this compound showed a TGI of over 100 µM.

Take `N#CC(c1nc2ccccc2s1)c1ncnc(Cl)c1[N+](=O)[O-]` (stereo not given): the TGI in assay [2] was determined as 76.5 µM; in assay [3], 35.5 µM; in [4], 92.1 µM; in assay [5], 42.8 µM; in assay [6], 37.5 µM; in [7], 83.2 µM. Further, the TGI is 32.7 µM in [8] and over 100 µM in assay [9].

With `C/C(=C\c1ccccc1)C(=O)NCc1ccc(C(=O)NCCC(C)C)cc1`, the TGI in assay [1], in assay [2], in assay [3], in assay [4], in [5] and in assay [6] was over 100 µM in each case. The TGI in assay [7], in [8] and in assay [9] was over 100 µM throughout.

For the origin of these results see PubChem BioAssay (NCI).
